Experimental data published in the NIST ThermoML archive (doi:10.1021/je900210h).

Conditions: Fluid (supercritical or subcritical phases), Coaxial cylinder method

FCC(F)(F)F [1,1,1,2-tetrafluoroethane]
Conditions | thermal conductivity [W/m/K]
385.18 K, 4959 kPa | 0.0526
385.18 K, 4978 kPa | 0.0528
385.18 K, 5000 kPa | 0.053
385.18 K, 5022 kPa | 0.053
385.18 K, 5042 kPa | 0.053
385.18 K, 5058 kPa | 0.053
385.18 K, 5080 kPa | 0.053
385.18 K, 5100 kPa | 0.053
385.18 K, 5120 kPa | 0.053
385.18 K, 5151 kPa | 0.0528
385.18 K, 5179 kPa | 0.0526
385.18 K, 5224 kPa | 0.0524
385.18 K, 5254 kPa | 0.0522
385.19 K, 4900 kPa | 0.0512
385.19 K, 4918 kPa | 0.0518
385.19 K, 5296 kPa | 0.0518
385.19 K, 5322 kPa | 0.0518
385.19 K, 5358 kPa | 0.0516
385.19 K, 5402 kPa | 0.0516
385.19 K, 5454 kPa | 0.0514
385.19 K, 5513 kPa | 0.0512
385.2 K, 4880 kPa | 0.0505
385.21 K, 4840 kPa | 0.0488
385.22 K, 4820 kPa | 0.048
385.23 K, 4800 kPa | 0.0471
385.25 K, 4760 kPa | 0.0458
385.26 K, 4730 kPa | 0.0446
385.28 K, 4700 kPa | 0.0431
385.29 K, 4670 kPa | 0.0421
385.3 K, 4640 kPa | 0.0411
385.31 K, 4610 kPa | 0.0401
385.33 K, 4580 kPa | 0.0393
385.34 K, 4540 kPa | 0.0382
385.36 K, 4500 kPa | 0.0371
385.37 K, 4460 kPa | 0.0363
385.39 K, 4410 kPa | 0.0352
385.41 K, 4360 kPa | 0.0343
385.42 K, 4310 kPa | 0.0335
385.57 K, 4260 kPa | 0.0328
385.59 K, 4200 kPa | 0.032
385.61 K, 4120 kPa | 0.0311
385.72 K, 5700 kPa | 0.0514
385.72 K, 5714 kPa | 0.0516
385.75 K, 4060 kPa | 0.0305
385.78 K, 3920 kPa | 0.0293
387.19 K, 7800 kPa | 0.0564
387.2 K, 7501 kPa | 0.0559
387.22 K, 7002 kPa | 0.0545
387.23 K, 6650 kPa | 0.0536
387.25 K, 6371 kPa | 0.0527
387.27 K, 9502 kPa | 0.0597
387.28 K, 18006 kPa | 0.0691
387.29 K, 17000 kPa | 0.0682
387.3 K, 8468 kPa | 0.0578
387.3 K, 16290 kPa | 0.0676
387.32 K, 14910 kPa | 0.0663
387.33 K, 13500 kPa | 0.0648
387.33 K, 14002 kPa | 0.0653
387.34 K, 13000 kPa | 0.0642
387.37 K, 11008 kPa | 0.0619
387.37 K, 11503 kPa | 0.0625
392.65 K, 180 kPa | 0.02136
394.44 K, 6457 kPa | 0.0507
394.44 K, 6523 kPa | 0.0509
394.44 K, 6557 kPa | 0.0511
394.45 K, 6140 kPa | 0.0494
394.45 K, 6200 kPa | 0.0496
394.45 K, 6260 kPa | 0.0498
394.45 K, 6300 kPa | 0.05
394.45 K, 6399 kPa | 0.0503
394.46 K, 5940 kPa | 0.0483
394.46 K, 5980 kPa | 0.0487
394.46 K, 6044 kPa | 0.0491
394.46 K, 6100 kPa | 0.0492
394.47 K, 5760 kPa | 0.0472
394.47 K, 5767 kPa | 0.0472
394.47 K, 5800 kPa | 0.0476
394.47 K, 5811 kPa | 0.0476
394.47 K, 5851 kPa | 0.048
394.47 K, 5886 kPa | 0.048
394.49 K, 5583 kPa | 0.0453
394.49 K, 5626 kPa | 0.0457
394.49 K, 5641 kPa | 0.046
394.5 K, 5527 kPa | 0.0444
394.52 K, 5428 kPa | 0.043
394.53 K, 5366 kPa | 0.0419
394.54 K, 5314 kPa | 0.0411
394.55 K, 5300 kPa | 0.0409
394.56 K, 5246 kPa | 0.04
394.56 K, 6908 kPa | 0.0519
394.56 K, 7067 kPa | 0.0523
394.57 K, 5176 kPa | 0.039
394.57 K, 6665 kPa | 0.0513
394.57 K, 6720 kPa | 0.0515
394.57 K, 6754 kPa | 0.0515
394.57 K, 6800 kPa | 0.0515
394.6 K, 5055 kPa | 0.0374
394.68 K, 7457 kPa | 0.0533
394.68 K, 7521 kPa | 0.0535
394.68 K, 7635 kPa | 0.0537
394.69 K, 7159 kPa | 0.0526
394.69 K, 7321 kPa | 0.0528
394.81 K, 7706 kPa | 0.0538
394.81 K, 7827 kPa | 0.0541
394.88 K, 4950 kPa | 0.036
394.88 K, 4978 kPa | 0.0363
394.89 K, 4890 kPa | 0.0353
394.91 K, 4821 kPa | 0.0346
394.93 K, 4722 kPa | 0.0335
394.94 K, 4649 kPa | 0.0328
394.95 K, 4583 kPa | 0.0322
395.23 K, 4495 kPa | 0.0315
395.24 K, 4405 kPa | 0.0309
403.68 K, 7203 kPa | 0.0484
403.69 K, 7105 kPa | 0.048
403.69 K, 7364 kPa | 0.049
403.82 K, 6973 kPa | 0.0475
403.83 K, 6852 kPa | 0.0468
404.23 K, 6723 kPa | 0.046
404.23 K, 6754 kPa | 0.0461
404.34 K, 6434 kPa | 0.044
404.34 K, 6516 kPa | 0.0446
404.36 K, 6559 kPa | 0.0449
404.36 K, 6640 kPa | 0.0453
404.38 K, 6342 kPa | 0.0433
404.4 K, 6039 kPa | 0.041
404.4 K, 6080 kPa | 0.0413
404.42 K, 5967 kPa | 0.0402
404.43 K, 5860 kPa | 0.0393
404.43 K, 5908 kPa | 0.0396
404.44 K, 5814 kPa | 0.0388
404.45 K, 5750 kPa | 0.0383
404.46 K, 5668 kPa | 0.0375
404.47 K, 5579 kPa | 0.0368
404.48 K, 5494 kPa | 0.0361
404.49 K, 5419 kPa | 0.0355
404.5 K, 5330 kPa | 0.0349
404.51 K, 5242 kPa | 0.0342
404.65 K, 5162 kPa | 0.0336
404.67 K, 5039 kPa | 0.0329
404.68 K, 4909 kPa | 0.0321
404.7 K, 4754 kPa | 0.0312
404.71 K, 4641 kPa | 0.0307
404.73 K, 4451 kPa | 0.0298
404.73 K, 4467 kPa | 0.0298
404.73 K, 4523 kPa | 0.0301
404.76 K, 4201 kPa | 0.0287
404.76 K, 4278 kPa | 0.029
404.77 K, 4070 kPa | 0.0283
405.05 K, 3914 kPa | 0.0278
405.06 K, 3790 kPa | 0.0274
405.07 K, 3698 kPa | 0.0271
405.25 K, 2700 kPa | 0.0252
405.25 K, 2863 kPa | 0.0254
405.26 K, 2524 kPa | 0.0249
405.27 K, 2343 kPa | 0.0247
405.34 K, 3411 kPa | 0.0264
405.46 K, 8835 kPa | 0.0521
405.47 K, 8558 kPa | 0.0515
405.48 K, 7814 kPa | 0.0499
405.49 K, 7506 kPa | 0.049
405.81 K, 1930 kPa | 0.0243
406.09 K, 1196 kPa | 0.0236
406.88 K, 18500 kPa | 0.0652
406.9 K, 16345 kPa | 0.063
406.91 K, 15679 kPa | 0.0623
406.93 K, 14350 kPa | 0.0608
406.94 K, 13921 kPa | 0.0603
406.96 K, 12915 kPa | 0.0591
406.99 K, 11426 kPa | 0.0569
407 K, 10911 kPa | 0.0562
407.01 K, 10638 kPa | 0.0557
426.86 K, 160 kPa | 0.02469
436.44 K, 180 kPa | 0.02542
446.25 K, 200 kPa | 0.02665
446.25 K, 760 kPa | 0.02661
451.17 K, 180 kPa | 0.02683
455.69 K, 100 kPa | 0.0268
455.92 K, 680 kPa | 0.02719
466.31 K, 650 kPa | 0.02846
476.24 K, 100 kPa | 0.02922
496.18 K, 100 kPa | 0.0311
515.97 K, 100 kPa | 0.03304
